In ChEMBL document CHEMBL1201862, “PubChem BioAssay data set” (2004):
pIC50: −log10 of the molar value. The source made the active and inactive calls.

Legend:
[1] = HEp-2 cell cytotoxicity, dose response, cytotoxicity control for RSV inhibitor project, HTS (AID 2410); type: functional; conditions: human respiratory syncytial virus
Vero = experiment: cells; type: functional, cell-based; conditions: Chlorocebus sabaeus
Genome polyprotein = target: T1, Genome polyprotein (Hepatitis C virus, UniProt Q2Q167); experiment: HCV core protein dimerization inhibitors, dose response, biochemical, TR-FRET (AID 2159); parameters: species or system Hepacivirus hominis;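 also: blocks dimerization of HCV core protein measured by TR-FRET between tagged core106 pairs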
T1 sequence (Q2Q167 whole entry): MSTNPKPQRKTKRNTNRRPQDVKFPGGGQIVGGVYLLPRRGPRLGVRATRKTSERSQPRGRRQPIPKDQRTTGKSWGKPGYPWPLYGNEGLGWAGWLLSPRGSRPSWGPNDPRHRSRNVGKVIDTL

[2] = target: T2, Voltage-gated N-type calcium channel alpha-1B subunit/Amyloid beta A4 precursor protein-binding family A member 1 (Homo sapiens, UniProt Q00975+Q02410); type: protein assay
Large T antigen = Large T antigen (Simian virus 40, UniProt P03070); type: functional, Betapolyomavirus macacae;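 also: Confirmatory-stage PubChem screen for compounds that inhibit SV40 T antigen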
Estrogen receptor = target: T3, Estrogen receptor (Homo sapiens, UniProt P03372);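 also: potency for inhibiting coactivator peptide recruitment to the receptor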
T3 sequence (P03372 whole entry): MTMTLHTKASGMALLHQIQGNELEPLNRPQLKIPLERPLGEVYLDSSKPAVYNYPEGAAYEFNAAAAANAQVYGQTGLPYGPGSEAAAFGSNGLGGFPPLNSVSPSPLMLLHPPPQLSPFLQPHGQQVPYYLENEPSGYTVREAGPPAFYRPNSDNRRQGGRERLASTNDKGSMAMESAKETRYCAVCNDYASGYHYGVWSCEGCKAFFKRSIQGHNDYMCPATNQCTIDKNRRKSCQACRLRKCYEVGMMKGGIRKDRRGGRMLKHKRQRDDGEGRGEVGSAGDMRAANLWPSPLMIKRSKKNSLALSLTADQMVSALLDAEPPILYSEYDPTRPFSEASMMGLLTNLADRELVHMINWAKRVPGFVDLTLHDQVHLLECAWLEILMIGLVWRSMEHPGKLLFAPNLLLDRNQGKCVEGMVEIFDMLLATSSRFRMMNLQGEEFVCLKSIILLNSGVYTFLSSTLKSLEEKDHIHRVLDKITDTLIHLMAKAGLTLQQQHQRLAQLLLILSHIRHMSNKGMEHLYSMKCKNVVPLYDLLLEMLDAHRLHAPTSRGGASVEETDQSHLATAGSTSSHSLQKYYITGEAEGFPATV

[3] = target: T2, Voltage-gated N-type calcium channel alpha-1B subunit/Amyloid beta A4 precursor protein-binding family A member 1; type: protein assay; remark: listed apart in the source
[4] = target: DNA dC->dU-editing enzyme APOBEC-3A (Homo sapiens, UniProt P31941); experiment: Dose Response confirmation of small molecule APOBEC3A DNA Deaminase Inhibitors via a fluorescence-based single-stranded DNA deaminase assay. [Related pubchem assays (depositor defined):AID493011, AID493024]; type: functional
[5] = target: DNA dC->dU-editing enzyme APOBEC-3G (Homo sapiens, UniProt Q9HC16); type: functional;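 also: Dose-response counterscreen measuring inhibition of APOBEC3G DNA deaminase activity, run while confirming APOBEC3A inhibitors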
[6] = target: Eukaryotic translation initiation factor 4E (Mus musculus, UniProt P63073); experiment: eIF4E–eIF4G protein interaction inhibitors, dose response, biochemical, TR-FRET (AID 855); type: functional;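 also: potency for disrupting eIF4E binding to eIF4GI seen as loss of FRET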
[7] = A cytotoxicity screen of small molecule inhibitors of the PhoP region in Salmonella typhi identified in the primary screen. [Related pubchem assays: 1850, 1864, 1985 ]; type: functional
[8] = tested on: Streptococcus sp. 'group A'; experiment: growth inhibition of control SK(-) GAS strain, dose response, counter-screen for streptokinase expression inhibitor project, luminescence, kanamycin, BacTiterGlo, confirmation (AID 1900); type: functional, organism-based
[9] = target: T4, Heat shock factor protein 1 (Mus musculus, UniProt P38532); experiment: inhibition of MG132-induced HSE-luciferase signal, confirmation, cell-based, NIH3T3, luminescence, dose retest (AID 2382); type: functional;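 also: NIH3T3 fibroblasts with HSF1-driven luciferase reporter stressed by proteasome inhibitor MG132; luminescence from HSF1-driven luciferase expression after 8 hours of MG132 stress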
T4 sequence (P38532 whole entry): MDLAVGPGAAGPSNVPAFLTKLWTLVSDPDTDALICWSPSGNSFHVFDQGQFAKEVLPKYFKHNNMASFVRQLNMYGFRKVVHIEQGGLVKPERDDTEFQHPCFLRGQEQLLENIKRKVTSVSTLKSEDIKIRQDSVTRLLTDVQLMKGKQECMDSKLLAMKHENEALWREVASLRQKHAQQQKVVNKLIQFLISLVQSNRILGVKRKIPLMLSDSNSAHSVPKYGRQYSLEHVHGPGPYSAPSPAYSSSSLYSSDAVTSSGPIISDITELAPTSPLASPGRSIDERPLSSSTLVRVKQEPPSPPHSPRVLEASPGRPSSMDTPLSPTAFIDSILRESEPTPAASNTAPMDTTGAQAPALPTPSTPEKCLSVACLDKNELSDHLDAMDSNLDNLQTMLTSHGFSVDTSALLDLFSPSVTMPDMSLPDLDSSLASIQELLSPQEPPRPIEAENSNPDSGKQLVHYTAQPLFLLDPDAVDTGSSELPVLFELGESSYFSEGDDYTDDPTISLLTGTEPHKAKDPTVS

[10] = inhibitors of intracellular T. cruzi replication, confirmation, NIH3T3 host cells, beta-gal luminescence (AID 2044); type: functional, cell-based;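 also: intracellular parasites grown in NIH/3T3 mouse fibroblasts as host cells; luminescent beta-galactosidase reporter signal from transgenic T. cruzi replicating inside host cells; inhibitors lower the luminescence signal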
[11] = cytotoxicity toward NIH3T3 fibroblasts, dose response, counter-screen, cell-based, ATP luminescence, mouse fibroblasts (AID 2010); type: functional;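 also: cells exposed to compound for about 90 hours before reading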
Streptococcus = experiment: Group A Streptococcus viability loss, dose response, counter-screen for streptokinase expression inhibitor project, luminescence, BacTiterGlo (AID 1915); type: functional, organism-based;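 also: potency for reduction of bacterial viability or growth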
CAAX prenyl protease 2 = target: T5, CAAX prenyl protease 2 (Saccharomyces cerevisiae S288c, UniProt Q03530); type: biochemical
T5 sequence (Q03530 whole entry): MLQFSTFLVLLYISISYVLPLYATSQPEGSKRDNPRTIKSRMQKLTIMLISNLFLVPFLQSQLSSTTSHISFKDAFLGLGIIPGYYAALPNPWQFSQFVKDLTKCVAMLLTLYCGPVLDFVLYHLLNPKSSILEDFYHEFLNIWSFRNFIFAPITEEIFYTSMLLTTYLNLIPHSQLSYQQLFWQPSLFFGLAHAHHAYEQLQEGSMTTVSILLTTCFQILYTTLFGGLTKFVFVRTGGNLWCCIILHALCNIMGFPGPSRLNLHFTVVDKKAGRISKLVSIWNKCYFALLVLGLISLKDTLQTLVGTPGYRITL

[12] = target: T6, Delta-type opioid receptor (Homo sapiens, UniProt P41143); experiment: HTS Image-Based Screen for Antagonists of the DOR Receptor. [Related pubchem assays (depositor defined):AID1777, AID1785, AID1786, AID2133]; type: functional
Mu-type opioid receptor = Mu-type opioid receptor (Homo sapiens, UniProt P35372); experiment: HTS Image-Based Screen for Agonists of the MOR Receptor. [Related pubchem assays (depositor defined):AID1777, AID1785, AID1786, AID2133]; type: functional;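 also: imaging of beta-arrestin GFP recruitment into spots after receptor activation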
[13] = target: T6, Delta-type opioid receptor; experiment: HTS Image-Based Screen for Agonists of the DOR Receptor. [Related pubchem assays (depositor defined):AID1777, AID1786, AID2133]; type: functional
[14] = target: T7, Kappa-type opioid receptor (Homo sapiens, UniProt P41145); type: functional
Beta-galactosidase = Beta-galactosidase (Escherichia coli, UniProt Q8VNN2); type: functional
[15] = target: T7, Kappa-type opioid receptor; type: functional; remark: listed apart in the source
[16] = target: Voltage-dependent T-type calcium channel subunit alpha-1H (Homo sapiens, UniProt O95180); type: functional;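 also: channel activity triggered by adding a high calcium stimulation buffer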
Phospholipase A2 = Phospholipase A2 (Homo sapiens, UniProt P04054); type: functional;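 also: confirmatory dose-response counterscreen on phospholipase A2, testing hits that came from an ultra-high-throughput screen for ATG4B inhibitors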
[17] = target: Alkaline phosphatase, placental type (Homo sapiens, UniProt P05187); experiment: PLAP enzyme inhibitors, confirmation, biochemical, luminescence (AID 1512); type: functional
[18] = target: T8, Alkaline phosphatase, tissue-nonspecific isozyme (Homo sapiens, UniProt P05186); experiment: human TNAP enzyme inhibitors, SAR follow-up, biochemical, luminescent, dose response (AID 1056)
T8 sequence (P05186 whole entry): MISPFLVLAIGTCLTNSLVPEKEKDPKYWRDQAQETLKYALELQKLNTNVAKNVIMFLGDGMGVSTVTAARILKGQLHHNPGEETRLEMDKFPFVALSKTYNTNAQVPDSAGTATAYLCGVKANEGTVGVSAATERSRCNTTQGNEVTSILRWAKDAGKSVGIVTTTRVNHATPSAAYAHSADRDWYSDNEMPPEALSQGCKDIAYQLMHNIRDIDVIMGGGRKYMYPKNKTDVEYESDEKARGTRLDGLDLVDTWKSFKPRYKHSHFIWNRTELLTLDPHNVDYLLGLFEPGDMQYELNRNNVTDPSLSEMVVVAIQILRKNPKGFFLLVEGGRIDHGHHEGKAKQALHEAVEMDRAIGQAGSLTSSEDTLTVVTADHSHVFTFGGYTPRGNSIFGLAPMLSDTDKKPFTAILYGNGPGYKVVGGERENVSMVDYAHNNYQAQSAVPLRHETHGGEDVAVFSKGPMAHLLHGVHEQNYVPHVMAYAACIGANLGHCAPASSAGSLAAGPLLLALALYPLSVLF

Eukaryotic translation initiation factor 4E, sequence (P63073 whole entry): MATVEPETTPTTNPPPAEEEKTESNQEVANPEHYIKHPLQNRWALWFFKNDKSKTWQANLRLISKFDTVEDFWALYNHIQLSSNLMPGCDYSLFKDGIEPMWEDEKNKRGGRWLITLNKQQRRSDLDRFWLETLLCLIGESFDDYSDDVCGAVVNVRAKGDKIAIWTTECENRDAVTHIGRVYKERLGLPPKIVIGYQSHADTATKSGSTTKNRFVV
T2 sequence (Q00975 whole entry): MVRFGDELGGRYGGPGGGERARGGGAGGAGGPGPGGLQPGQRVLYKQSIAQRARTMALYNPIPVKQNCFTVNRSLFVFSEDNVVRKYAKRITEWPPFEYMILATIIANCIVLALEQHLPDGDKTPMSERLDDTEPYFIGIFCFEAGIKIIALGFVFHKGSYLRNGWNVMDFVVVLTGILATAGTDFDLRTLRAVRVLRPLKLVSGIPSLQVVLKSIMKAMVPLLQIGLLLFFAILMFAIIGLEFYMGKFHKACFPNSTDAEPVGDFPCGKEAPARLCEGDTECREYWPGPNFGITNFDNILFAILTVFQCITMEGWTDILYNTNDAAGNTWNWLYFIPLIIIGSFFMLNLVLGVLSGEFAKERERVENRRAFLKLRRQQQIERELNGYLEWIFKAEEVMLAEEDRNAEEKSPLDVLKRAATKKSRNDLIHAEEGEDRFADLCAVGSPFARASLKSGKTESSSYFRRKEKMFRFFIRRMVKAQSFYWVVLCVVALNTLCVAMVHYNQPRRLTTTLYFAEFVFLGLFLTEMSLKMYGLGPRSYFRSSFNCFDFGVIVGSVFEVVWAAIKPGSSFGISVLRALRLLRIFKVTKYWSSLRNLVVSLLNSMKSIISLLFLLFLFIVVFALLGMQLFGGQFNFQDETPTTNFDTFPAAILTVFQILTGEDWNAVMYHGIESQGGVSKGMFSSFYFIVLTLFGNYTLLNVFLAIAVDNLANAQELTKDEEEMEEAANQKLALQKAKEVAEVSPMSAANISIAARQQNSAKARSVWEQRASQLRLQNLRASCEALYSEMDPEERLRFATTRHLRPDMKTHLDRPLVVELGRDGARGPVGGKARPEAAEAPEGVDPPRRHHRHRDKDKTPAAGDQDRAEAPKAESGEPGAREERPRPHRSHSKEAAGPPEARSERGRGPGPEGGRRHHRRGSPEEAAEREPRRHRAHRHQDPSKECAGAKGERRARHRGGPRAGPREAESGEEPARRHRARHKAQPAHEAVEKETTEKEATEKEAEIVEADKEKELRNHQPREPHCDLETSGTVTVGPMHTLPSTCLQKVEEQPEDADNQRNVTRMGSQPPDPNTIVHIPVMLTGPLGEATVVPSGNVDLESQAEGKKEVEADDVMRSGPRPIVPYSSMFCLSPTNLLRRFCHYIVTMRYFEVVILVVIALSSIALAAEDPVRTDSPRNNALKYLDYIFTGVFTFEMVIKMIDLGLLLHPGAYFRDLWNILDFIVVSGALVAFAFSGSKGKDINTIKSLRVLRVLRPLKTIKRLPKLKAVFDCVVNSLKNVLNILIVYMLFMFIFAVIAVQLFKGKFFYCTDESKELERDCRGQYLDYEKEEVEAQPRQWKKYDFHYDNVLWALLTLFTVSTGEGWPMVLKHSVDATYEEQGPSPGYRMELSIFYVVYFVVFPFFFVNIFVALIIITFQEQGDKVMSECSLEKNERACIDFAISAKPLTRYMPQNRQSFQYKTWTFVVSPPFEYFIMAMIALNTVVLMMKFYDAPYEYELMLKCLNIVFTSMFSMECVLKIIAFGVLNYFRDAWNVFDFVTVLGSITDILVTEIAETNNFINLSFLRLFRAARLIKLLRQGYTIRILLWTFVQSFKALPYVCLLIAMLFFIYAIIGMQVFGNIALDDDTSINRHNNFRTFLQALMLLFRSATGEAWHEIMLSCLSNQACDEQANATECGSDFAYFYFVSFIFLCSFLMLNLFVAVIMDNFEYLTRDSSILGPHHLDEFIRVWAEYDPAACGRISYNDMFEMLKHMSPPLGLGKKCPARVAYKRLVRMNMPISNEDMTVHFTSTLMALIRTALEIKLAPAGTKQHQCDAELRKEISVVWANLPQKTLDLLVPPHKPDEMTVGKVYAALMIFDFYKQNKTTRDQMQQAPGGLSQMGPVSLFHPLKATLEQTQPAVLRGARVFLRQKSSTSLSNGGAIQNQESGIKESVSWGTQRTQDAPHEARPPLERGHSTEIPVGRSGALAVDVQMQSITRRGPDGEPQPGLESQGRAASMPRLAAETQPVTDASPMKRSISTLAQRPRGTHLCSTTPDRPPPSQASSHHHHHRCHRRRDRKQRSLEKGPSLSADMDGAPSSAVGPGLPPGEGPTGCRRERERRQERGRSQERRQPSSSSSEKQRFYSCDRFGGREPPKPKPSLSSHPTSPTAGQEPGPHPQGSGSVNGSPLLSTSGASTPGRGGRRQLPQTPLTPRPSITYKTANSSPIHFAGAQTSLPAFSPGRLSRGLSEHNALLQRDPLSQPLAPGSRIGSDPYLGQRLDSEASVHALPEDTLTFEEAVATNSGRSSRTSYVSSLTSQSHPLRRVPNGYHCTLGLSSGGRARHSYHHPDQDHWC
T2 sequence (Q02410 whole entry): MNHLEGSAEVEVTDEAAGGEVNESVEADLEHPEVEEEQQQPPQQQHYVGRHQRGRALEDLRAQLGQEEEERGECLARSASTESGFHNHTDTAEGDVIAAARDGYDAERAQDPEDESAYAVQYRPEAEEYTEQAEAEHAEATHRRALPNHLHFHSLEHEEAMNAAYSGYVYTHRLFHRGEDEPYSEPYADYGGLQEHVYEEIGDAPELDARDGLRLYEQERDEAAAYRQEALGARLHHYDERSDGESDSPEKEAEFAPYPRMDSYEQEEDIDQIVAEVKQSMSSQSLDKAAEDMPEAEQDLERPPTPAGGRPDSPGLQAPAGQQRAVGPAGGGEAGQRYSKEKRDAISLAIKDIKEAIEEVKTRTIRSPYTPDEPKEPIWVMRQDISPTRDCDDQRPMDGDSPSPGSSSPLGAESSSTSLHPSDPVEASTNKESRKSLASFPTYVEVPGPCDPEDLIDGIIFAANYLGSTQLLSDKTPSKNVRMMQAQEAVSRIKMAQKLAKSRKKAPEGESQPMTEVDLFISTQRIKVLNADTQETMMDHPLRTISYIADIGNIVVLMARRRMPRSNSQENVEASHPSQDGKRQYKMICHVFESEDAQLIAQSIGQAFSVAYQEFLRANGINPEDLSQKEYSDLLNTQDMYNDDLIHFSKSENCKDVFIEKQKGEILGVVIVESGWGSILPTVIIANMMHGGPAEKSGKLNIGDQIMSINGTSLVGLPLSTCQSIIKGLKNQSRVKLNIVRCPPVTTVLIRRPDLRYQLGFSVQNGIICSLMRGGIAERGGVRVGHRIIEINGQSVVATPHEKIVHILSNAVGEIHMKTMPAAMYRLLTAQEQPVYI
Alkaline phosphatase, placental type, sequence (P05187 whole entry): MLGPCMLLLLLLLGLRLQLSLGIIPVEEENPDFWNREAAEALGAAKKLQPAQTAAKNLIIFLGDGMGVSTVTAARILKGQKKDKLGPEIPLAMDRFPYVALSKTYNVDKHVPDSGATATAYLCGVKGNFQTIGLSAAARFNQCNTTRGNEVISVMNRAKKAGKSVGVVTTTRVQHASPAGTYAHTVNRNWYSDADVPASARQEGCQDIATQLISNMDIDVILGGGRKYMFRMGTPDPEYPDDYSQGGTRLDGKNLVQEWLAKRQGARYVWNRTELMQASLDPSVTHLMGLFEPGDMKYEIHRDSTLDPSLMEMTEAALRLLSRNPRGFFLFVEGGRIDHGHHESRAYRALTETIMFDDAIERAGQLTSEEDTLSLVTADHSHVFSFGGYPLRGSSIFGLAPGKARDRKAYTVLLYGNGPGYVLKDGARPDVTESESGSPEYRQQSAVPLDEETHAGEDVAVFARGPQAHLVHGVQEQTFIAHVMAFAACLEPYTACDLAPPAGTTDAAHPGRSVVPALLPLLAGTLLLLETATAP
T6 sequence (P41143 whole entry): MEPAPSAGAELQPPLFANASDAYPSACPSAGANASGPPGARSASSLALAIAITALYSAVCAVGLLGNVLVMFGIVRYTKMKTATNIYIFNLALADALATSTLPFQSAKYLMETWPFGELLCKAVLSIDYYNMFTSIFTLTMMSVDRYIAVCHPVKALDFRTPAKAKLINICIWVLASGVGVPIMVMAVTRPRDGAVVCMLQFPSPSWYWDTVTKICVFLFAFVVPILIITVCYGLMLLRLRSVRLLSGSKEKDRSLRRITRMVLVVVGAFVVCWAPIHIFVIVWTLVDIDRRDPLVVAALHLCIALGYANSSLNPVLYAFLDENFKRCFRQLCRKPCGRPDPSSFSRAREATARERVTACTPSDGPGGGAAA
DNA dC->dU-editing enzyme APOBEC-3G, sequence (Q9HC16 whole entry): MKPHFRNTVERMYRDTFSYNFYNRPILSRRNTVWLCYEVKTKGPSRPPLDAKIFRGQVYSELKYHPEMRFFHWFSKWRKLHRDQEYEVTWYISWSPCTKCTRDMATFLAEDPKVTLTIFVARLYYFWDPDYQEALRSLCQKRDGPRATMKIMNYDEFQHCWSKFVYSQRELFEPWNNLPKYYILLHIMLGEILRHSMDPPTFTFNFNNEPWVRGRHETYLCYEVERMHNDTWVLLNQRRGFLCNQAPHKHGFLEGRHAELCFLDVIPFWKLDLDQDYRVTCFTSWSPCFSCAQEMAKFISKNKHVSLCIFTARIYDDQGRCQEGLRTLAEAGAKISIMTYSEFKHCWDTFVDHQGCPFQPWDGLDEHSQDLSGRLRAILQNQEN
T7 sequence (P41145 whole entry): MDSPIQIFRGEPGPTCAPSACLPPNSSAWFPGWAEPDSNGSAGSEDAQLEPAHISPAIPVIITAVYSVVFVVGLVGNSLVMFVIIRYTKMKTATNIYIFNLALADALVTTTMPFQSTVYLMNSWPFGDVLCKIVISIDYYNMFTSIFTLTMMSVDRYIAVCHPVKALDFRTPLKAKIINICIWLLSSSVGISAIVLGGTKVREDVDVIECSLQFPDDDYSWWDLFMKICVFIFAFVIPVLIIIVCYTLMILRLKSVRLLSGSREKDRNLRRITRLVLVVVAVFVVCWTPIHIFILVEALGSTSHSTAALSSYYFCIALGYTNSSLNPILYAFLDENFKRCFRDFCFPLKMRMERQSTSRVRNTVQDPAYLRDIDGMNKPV

O=C(NC(Cc1c[nH]c2ccccc12)C(=O)Nc1ccc(F)cc1)c1cccs1 (stereo unspecified)
CC50 [1]: 15.6 µM (active) | IC50 (Vero): 8.41 µM (active) | IC50 (cells): 12.8 µM (active)

Cc1cccc(N2CSC3=C(C#N)C(c4ccc(C)o4)CC(=O)N3C2)c1 (stereo unspecified)
IC50 (Genome polyprotein): > 49.8 µM (not active) | IC50 [2]: 6.47 µM (active) | IC50 (Large T antigen): 11.4 µM (active) | IC50 (Estrogen receptor): 3.55 µM (active) | IC50 [3]: 22.3 µM (active)

COc1ccc(CCCC(=O)NC2CCCCC2C)c(C)c1 (stereo unspecified)
IC50 [4]: 3.49 µM (active) | IC50 [5]: 2.99 µM (active)

Cc1cccnc1NC(=O)CN1C(=O)COc2ccc(Cl)cc21
IC50 [4]: 1.91 µM (active) | IC50 [5]: 1.65 µM (active)

CCn1c(C)c(C(C)=O)c(N2CCN(C(=O)c3ccco3)CC2)nc1=S
IC50 [6]: > 64 µM (inactive)

Cc1cc(C)nc(NC(=S)Nc2cccc(Cl)c2Cl)c1
IC50 [2]: 1.27 µM (active) | IC50 [3]: > 50 µM (inactive)

CC(C)(C)c1ccc(C(=O)NNC(=O)Cc2ccccc2)cc1
EC50 [7]: > 50 µM (active)

CCOc1ccccc1OCc1nn2c(COc3ccccc3)nnc2s1
IC50 [6]: > 64 µM (inactive)

CCc1cccc2c(C(=O)COC(=O)c3ccc([N+](=O)[O-])s3)c[nH]c12
EC50 [7]: > 50 µM (active) | EC50 [8]: 0.497 µM (active) | EC50 [9]: 7.75 µM (active) | EC50 [10]: 0.739 µM (active) | EC50 [11]: > 30 µM (not active) | EC50 (Streptococcus): 1.03 µM (active)

Cc1cc(=O)n2ccccc2c1C#N
AC50 (CAAX prenyl protease 2): 24.9 µM (active)

Cn1c2ccccc2c(=O)c2c(=O)n(Cc3ccco3)c(COc3ccccc3)nc21
CC50 [1]: 32.8 µM (active) | EC50 [10]: 0.123 µM (active) | EC50 [11]: > 60 µM (not active) | IC50 (cells): 21.2 µM (active)

O=C(Nc1nnc(-c2cccs2)o1)c1cccc(Oc2ccccc2)c1
IC50 [12]: > 32 µM (inactive) | EC50 (Mu-type opioid receptor): > 32 µM (inactive) | EC50 [13]: > 32 µM (inactive) | IC50 [14]: 9.8 µM (active) | EC50 (Beta-galactosidase): > 31.5 µM (inactive) | pIC50 [15]: < 4.49 | EC50 [16]: 3.02 µM (active)

O=C(O)c1cc(-c2ccc(/C=C3/SC(=S)N(Cc4ccccc4)C3=O)o2)ccc1Cl
IC50 [6]: 15.1 µM (active)

N#Cc1c(-c2cccc(Br)c2)cc(-c2ccco2)[nH]c1=O
IC50 (Phospholipase A2): 11.7 µM (active)

Cc1cc(C(=O)NCc2ccc(O)c(O)c2)c(C)o1
IC50 [17]: > 100 µM (inactive) | IC50 [18]: 12.5 µM (active)

O=C(CNC1CCCCC1)c1ccc(O)c(O)c1
IC50 [17]: 18.8 µM (active) | IC50 [18]: > 100 µM (inactive)
